Values of other authors as cited in patent US7074355B2, “Process for dry granulation by agitative balling for the preparation of chemically stable, dry-flow, low compact, dust free, soluble spherical granules of phosphoroamidothioate” (United Phosphorus Ltd., priority 2003, dated 2006).

System: insects
Conditions: systemic and contact insecticide of moderate persistence

For COP(=O)(NC(C)=O)SC (stereo not shown) [Acephate], the residual activity lasting is listed as 10 to 15 days.
